According to patent US8648099B2 (Hoffmann-La Roche Inc., priority 2011, dated 2014):
Where two headings read alike, the source gives them in different places.

What was measured:
[1] = system: ABCA1 protein; assay: Detection of upregulation of ABCA1 protein in cells (ApoA-I binding, high content imaging); format: cell-based; details: THP-1 macrophage cells; for % increase of ABCA1 at 3 μM: compound at 3 μM, 24 hrs; for EC50: 24 hrs compound incubation, read-out: EC50 [μM] ABCA1 protein increasing efficacy
Description: The ability of compounds of the invention to increase the level of ABCA1 protein is determined in replicate cultures of THP-1 macrophage cells in 96-well microplates. Cells are plated at an initial density of 100,000 cells/well in 100 μl medium and differentiated to adherent macrophages with the addition of PMA (100 nM) for 68 hrs in 10% fetal bovine serum, 3 μl/L of b-mercaptoethanol, RPMI-1640 medium. Then, cells are incubated with RPMI-1640 medium containing 1% FCS, 25 μg/ml acetylated LDL, for 24 hours at 37° C. Following incubation with acetylated LDL, cells are washed twice with 50 μl PBS and incubated with 100 μl of RPMI-1640 medium containing the compound of interest solubilized in DMSO for an additional 24 hrs. The final DMSO concentration in presence of cells is maintained at 0.5%. ApoA-I binding assay using High Content Image Analysis is initiated by replacing with fresh medium, RPMI without Phenol Red, 0.2% BSA containing AlexaFluor®647 labeled ApoA-I for 2 h/37° C./5% CO2. Then, cells are fixed with 4% Formaldehyde in PBS (15 min, RT). Following Nuclei are stained with Hoechst solution (3 μM PBS) and Cytoplasm with Cell Mask Blue (2 μg/ml PBS), 15 min, RT. Finally the stained cells are fixed with a second round of formaldehyde treatment. Fixed stained cells are washed and kept in PBS at 4° C. and can be read immediately until one month after preparation.
The Alexa Fluor 647-labeled Apolipoprotein A-I (20 nM) was prepared as follows: Human recombinant Apolipoprotein A-I (ApoA-I) was exchanged to a buffer of 0.02 M NaHCO3 at pH 8.2 on an NAP desalting column (GE Healthcare) and brought to a concentration to 40 μM (1.13 mg/ml) by adjustment with the same buffer. The ApoA-I was fluorescently labeled by incubation with Alexa Fluor carboxylic acid succimidyl ester (Alexa Fluor 647, Invitrogen A-20006) at a 2:1 molar ratio (Alexa to ApoA-I) for 1 h under shaking at RT. The remaining unconjugated label was removed by buffer exchange to 0.02M NaHCO3 at pH 8.2.
Imaging and data collection were performed on an OPERA confocal microplate imaging reader using a 20× water immersion objective and UV360 or 405 laser to identify the cell nuclei and a 635 laser to identify the fluorescent ApoA-I. Eight fields of view are captured per well. Image capture and analysis was performed with the Acapella software. Background fluorescence detected in control wells without ApoA-I was subtracted.
Using XLfit3 program (ID Business Solutions Ltd. UK), the model 205 for Dose Response One Site is used to calculate the EC50 values. […] More particularly, the compounds of the present invention have EC50 values in a range of 0.1 μM to 3 μm.

[2] = molecular target: T1, human CB1 receptor (Homo sapiens, UniProt P21554); assay: CB1 receptor affinity ([3H]-CP-55,940 displacement, HEK cell membranes); format: binding; details: read-out: CB1 receptor affinity [% inhibition @ 10 μM]
T1 construct: expressed in transfected cells; host or cells: human embryonic kidney (HEK) cells, Semliki Forest Virus system, membrane preparations
T1 sequence (P21554 whole entry): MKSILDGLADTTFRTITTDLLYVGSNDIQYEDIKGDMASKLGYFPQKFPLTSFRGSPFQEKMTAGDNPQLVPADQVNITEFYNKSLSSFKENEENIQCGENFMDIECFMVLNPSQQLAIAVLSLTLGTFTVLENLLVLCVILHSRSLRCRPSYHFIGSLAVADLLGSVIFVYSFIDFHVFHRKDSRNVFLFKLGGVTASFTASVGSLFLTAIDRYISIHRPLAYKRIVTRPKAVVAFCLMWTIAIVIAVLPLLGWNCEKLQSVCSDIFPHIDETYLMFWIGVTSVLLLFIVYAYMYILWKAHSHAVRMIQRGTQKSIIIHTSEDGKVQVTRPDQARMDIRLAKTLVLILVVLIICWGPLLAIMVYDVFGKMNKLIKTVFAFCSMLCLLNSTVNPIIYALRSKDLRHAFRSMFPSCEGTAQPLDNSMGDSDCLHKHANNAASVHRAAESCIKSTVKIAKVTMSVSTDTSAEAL
Description: (§1) The affinity of the compounds of the invention for cannabinoid receptors was determined using membrane preparations of human embryonic kidney (HEK) cells in which the human CB1 receptor is transiently transfected using a Semliki Forest Virus system in conjunction with [3H]-CP-55,940 as radioligand. After incubation of freshly prepared cell membrane preparation with the [^3H]-ligand, with or without addition of compounds of the invention, separation of bound and free ligand was performed by filtration over glass fiber filters. Radioactivity on the filter was measured by scintillation counting.
(§2) The ability of the compounds to displace the radioligand [^3H]-CP-55,940 was measured at a concentration of 10 μM and values provided as [% inhibition @ 10 μM] both for the CB1 and CB2 receptor assay, The lower % inhibition is, the lower the likelihood of side effects based on CB1 or CB2 receptor inhibition is.

[3] = molecular target: T2, human CB2 receptor (Homo sapiens, UniProt P34972); assay: CB2 receptor affinity ([3H]-CP-55,940 displacement, HEK cell membranes); format: binding; details: displacement of [3H]-CP-55,940 at 10 μM
T2 construct: expressed in transfected cells; host or cells: human embryonic kidney (HEK) cells, Semliki Forest Virus system, membrane preparations
T2 sequence (P34972 whole entry): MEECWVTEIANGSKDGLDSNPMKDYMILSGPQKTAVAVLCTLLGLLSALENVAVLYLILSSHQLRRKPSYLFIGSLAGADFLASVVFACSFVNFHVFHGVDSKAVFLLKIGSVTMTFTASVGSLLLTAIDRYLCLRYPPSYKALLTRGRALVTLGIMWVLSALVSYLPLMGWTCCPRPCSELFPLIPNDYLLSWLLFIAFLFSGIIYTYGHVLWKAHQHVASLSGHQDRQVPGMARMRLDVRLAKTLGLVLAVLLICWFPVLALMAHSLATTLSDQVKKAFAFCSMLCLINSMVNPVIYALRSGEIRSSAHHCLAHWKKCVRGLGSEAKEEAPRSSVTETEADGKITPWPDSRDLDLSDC
Description: as §1, with “cannabinoid CB2” for “cannabinoid”, “CB2” for “CB1”, “[^3H]-CP-55,940” for “[3H]-CP-55,940”
as §2

[4] = displacement of [3H]-CP-55,940 at 10 μM

Row | inhibition at 10 µM [2, 4] | inhibition at 10 µM [3] | Structure (SMILES) | % increase of ABCA1 at 3 μM [1] | EC50 [1] | inhibition at 10 µM [2]
1 | 42% | 10% | O=C(NNCC(F)(F)F)c1cnc(OCC(F)(F)F)c(-c2ccc(Cl)cc2)c1 [Example 1, 5-(4-chlorophenyl)-6-(2,2,2-trifluoroethoxy)-N′-(2,2,2-trifluoroethyl)-3-pyridinecarboxylic acid hydrazide] | >45%@ 3 μM |  | 
2 | 43% | 8% | O=C(NN1CCOCC1)c1cnc(OCC(F)(F)F)c(-c2ccc(Cl)cc2)c1 [Example 2, 5-(4-chlorophenyl)-N-morpholino-6-(2,2,2-trifluoroethoxy)-3-pyridinecarboxamide] | >45%@ 3 μM |  | 
3 | 39% | 7% | O=C(NN1CCS(=O)(=O)CC1)c1cnc(OCC(F)(F)F)c(-c2ccc(Cl)cc2)c1 [Example 3, 5-(4-chloro-phenyl)-N-(1,1-dioxido-4-thiomorpholinyl)-6-(2,2,2-trifluoro-ethoxy)-3-pyridinecarboxamide] | >45%@ 3 μM |  | 
4 | 40% | 24% | CC(C)(C)OC(=O)N1CCCN1C(=O)c1cnc(OCC(F)(F)F)c(-c2ccc(Cl)cc2)c1 [Example 4, t-butyl 2-[(5-(4-chlorophenyl)-6-(2,2,2-trifluoroethoxy)-3-pyridinyl)carbonyl]-pyrazolidine-1-carboxylate] | >45%@ 3 μM |  | 
5 | 45% | 31% | CN(NC(=O)c1cnc(OCC(F)(F)F)c(-c2ccc(Cl)cc2)c1)c1ccccc1 [Example 5, 5-(4-chloro-phenyl)-6-(2,2,2-trifluoro-ethoxy)-3-pyridinecarboxylic acid N′-methyl-N′-phenyl-hydrazide] | >45%@ 3 μM |  | 
6 | 36% | -4% | O=C(NN1CC(CN2CCOCC2)OC1=O)c1cnc(OCC(F)(F)F)c(-c2ccc(Cl)cc2)c1 (stereo not drawn) [Example 7, 5-(4-chlorophenyl)-N-(5-(morpholinomethyl)-2-oxooxazolidin-3-yl)-6-(2,2,2-trifluoroethoxy)-3-pyridinecarboxamide] | >45%@ 3 μM |  | 
7 | 38% | 18% | CN(NC(=O)c1cnc(OCC(F)(F)F)c(-c2ccc(Cl)cc2)c1)c1ccc(Cl)nn1 [Example 8, 5-(4-chlorophenyl)-N′-(6-chloropyridazin-3-yl)-N′-methyl-6-(2,2,2-trifluoroethoxy)-3-pyridinecarboxylic acid hydrazide] | >45%@ 3 μM |  | 
8 | 11% | -2% | NNC(=O)c1cnc(OCC(F)(F)F)c(-c2ccc(Cl)c(F)c2)c1 [Example 9, 5-(4-chloro-3-fluorophenyl)-6-(2,2,2-trifluoroethoxy)-3-pyridinecarboxylic acid hydrazide] | >45%@ 3 μM |  | 
9 | 34% | 2% | O=C(NN1CCC(O)CC1)c1cnc(OCC2CC2)c(-c2ccc(Cl)cc2)c1 [Example 10, 5-(4-chlorophenyl)-6-(cyclopropylmethoxy)-N-(4-hydroxypiperidin-1-yl)-3-pyridinecarboxamide] |  | 1.03 µM | 
10 | 8% | 6% | O=C(NN1CCC(O)CC1)c1cnc(OCC(F)(F)F)c(C2CCCCC2)c1 [Example 12, 5-cyclohexyl-N-(4-hydroxypiperidin-1-yl)-6-(2,2,2-trifluoroethoxy)-3-pyridinecarboxamide] |  | 1.48 µM | 
11 | 23% | 1% | CS(=O)(=O)N1CCN(NC(=O)c2cnc(OCC(F)(F)F)c(-c3ccc(Cl)cc3)c2)CC1 [Example 13, 5-(4-chlorophenyl)-N-(4-(methylsulfonyl)piperazin-1-yl)-6-(2,2,2-trifluoroethoxy)-3-pyridinecarboxamide] |  | 0.33 µM | 
12 | 19% | 9% | O=C(NN1CCOCC1)c1cnc(OCC(F)(F)F)c(C2CCCC2)c1 [Example 14, 5-cyclopentyl-N-morpholino-6-(2,2,2-trifluoroethoxy)-3-pyridinecarboxamide] |  | 1.08 µM | 
13 | 13% | 12% | O=C(NN1CCCC1=O)c1cnc(OCC(F)(F)F)c(C2CCCC2)c1 [Example 15, 5-cyclopentyl-N-(2-oxopyrrolidin-1-yl)-6-(2,2,2-trifluoroethoxy)-3-pyridinecarboxamide] | >45%@ 3 μM |  | 
14 | 21% | -5% | CN(NC(=O)c1cnc(OCC(F)(F)F)c(C2CCCC2)c1)c1ccc(Cl)nn1 [Example 16, N′-(6-chloropyridazin-3-yl)-5-cyclopentyl-N′-methyl-6-(2,2,2-trifluoroethoxy)-3-pyridinecarboxylic acid hydrazide] |  | 1.17 µM | 
15 | 33% | 3% | COC[C@@H]1CCCN1NC(=O)c1cnc(OCC(F)(F)F)c(C2CCCC2)c1 [Example 17, (S)-5-cyclopentyl-N-(2-(methoxymethyl)pyrrolidin-1-yl)-6-(2,2,2-trifluoroethoxy)-3-pyridinecarboxamide] |  | 0.12 µM | 
16 | 41% | 18% | CN(NC(=O)c1cnc(OCC(F)(F)F)c(C2CCCC2)c1)c1ccccc1 [Example 18, 5-cyclopentyl-N′-methyl-N′-phenyl-6-(2,2,2-trifluoroethoxy)-3-pyridinecarboxylic acid hydrazide] | >45%@ 3 μM |  | 
17 | 29% | -23% | O=C(NN1CCOCC1)c1cnc(OCC(F)(F)F)c(C2CCCCC2)c1 [Example 19, 5-cyclohexyl-N-morpholino-6-(2,2,2-trifluoroethoxy)-3-pyridinecarboxamide] |  | 5.39 µM | 
18 | 39% | 9% | CN(NC(=O)c1cnc(OCC(F)(F)F)c(C2CCCCC2)c1)c1ccccc1 [Example 20, 5-cyclohexyl-N′-methyl-N′-phenyl-6-(2,2,2-trifluoroethoxy)-3-pyridinecarboxylic acid hydrazide] | >45%@ 3 μM |  | 

Row | Structure (SMILES) | inhibition at 10 µM [2, 4] | inhibition at 10 µM [3] | % increase of ABCA1 at 3 μM [1] | EC50 [1] | inhibition at 10 µM [2]
19 | O=C(NN1CCC(O)CC1)c1cnc(OCC(F)(F)F)c(-c2ccc(Cl)cc2)c1 [Example 6, 5-(4-chlorophenyl)-N-(4-hydroxypiperidin-1-yl)-6-(2,2,2-trifluoroethoxy)-3-pyridinecarboxamide] |  | -9% |  | 1.11 µM | 11%
20 | O=C(NN1CCC(O)CC1)c1cnc(OC2CCC2)c(-c2ccc(Cl)cc2)c1 [Example 11, 5-(4-chlorophenyl)-6-cyclobutoxy-N-(4-hydroxypiperidin-1-yl)-3-pyridinecarboxamide] | 14% | -8% |  | 0.18 µM | 
